Tests used:
[1] = system: OVX mice; assay: A2BR agonist BAY 60-6583 treatment of OVX animals; type: in vivo
[2] = system: young and old mice bone marrow stromal cells; assay: Alizarin Red S deposition, bone marrow stromal cells with adenosine; type: cell-based, mouse
Method: Alizarin Red S, an anthraquinone derivative, may be used to identify calcium in tissue sections. […] Calcium forms an Alizarin Red S-calcium complex in a chelation process, and the end product is birefringent. […]
• Aspirate medium from cell dish (P1 cells). • Rinse with sterile PBS, aspirate. • Add 5 mL trypsin (T75 flask), incubate for 4 min at 37 C. • Add 5 mL GM to stop. • Use cell scraper to further release cells. • Transfer to tube, use additional 5 mL GM to rinse the dish and transfer. • Spin down at 1200 rpm for 4 min. • Resuspend cells, seed into culture plate at 20,000 cells/cm^2. • 2 mL/well in 6-well • 0.5 mL/well in 24-well • Freeze the rest cells in freezing medium. • 10% DMSO • 90% GM • Prepare GM-ADO (60 ug/mL) fresh: • 18 mL GM • 180 uL ADO stock (6 mg/mL) • Refresh medium daily for two weeks with the culture conditions: • GM • GM-ADO • OM (positive control) • In the third week, use phosphate supplementation: • GM+ADO +3 mM phosphate • GM+3 mM phosphate • OM (positive control) • Alizarin red S staining at 14 d and 21 d • Wash cells gently with PBS. • Fix with 4% PFA for 15 min. […] Discard milliQ water. • Alizarin red S quantification • Add 500 ul of HCl (0.5M) to each well for 10 min. at room temp with gentle shaking. • Transfer HCl solution in each well into one 1.5 ml microcentrifuge tube. […]

[3] = system: primary mouse osteoprogenitor cells; assay: Adenosine-induced osteogenic differentiation in vitro; type: cell-based; details: adenosine 30 μg/ml, 7 or 14 days, no osteogenic-inducing factors
From the text: Osteoprogenitor cells were isolated as previously described with modifications. All buffers were ice cold, unless otherwise indicated. Briefly, the femur, tibia, humerus, radius, and ulna of mice were harvested. BM was flushed out and discarded. The bone was collected and cut into 1-mm^3 chips in harvest buffer and then digested in digestion buffer containing growth media [α minimum essential medium (αMEM), fetal bovine serum (FBS) (10%, v/v), penicillin/streptomycin (10,000 U/ml; 1%, v/v)], and collagenase type 2 (1 mg/ml, w/v; Worthington Biochemical, Lakewood, N.J.) while shaking at 60 rpm on orbital shaker (catalog no. 51700-13, Cole-Parmer, Vernon Hills, Ill.) in humidified incubator (37° C., 5% CO2) for 1.5 hours. Digested bone chips were rinsed three times with growth media and transferred to two wells of six-well plate for culture. Media were […] days, and bone chips were further cultured for 3 days for cells to adhere and proliferate before passage. For the first passage, cells were treated with 0.25% trypsin-EDTA (Thermo Fisher Scientific) for 3 min, neutralized with growth media, detached with cell scraper, and subcultured along with bone chips. The procedure for subsequent passages were similar but without bone chips. All experiments were performed at three to four passages. […]

[4] = system: mouse mononuclear cells undergoing osteoclast differentiation; assay: Osteoclast differentiation with adenosine in vitro; type: cell-based; details: adenosine 30 μg/ml, 6 days of osteoclast differentiation
Method: All buffers used were ice cold, unless otherwise indicated. Briefly, the femur, tibia, humerus, radius, ulna, and vertebra were harvested and crushed with pestle and mortar in harvest buffer [phosphate-buffered solution (PBS) and FBS (2%, v/v)] to release BM tissue. BM was passed through a 70-μm cell strainer and centrifuged at 200 g for 5 min. Cells were resuspended in harvest buffer, gently layered onto Ficoll-Paque PLUS (GE Healthcare, Marlborough, Mass.) at 1:1 ratio, and centrifuged without rotor acceleration and deceleration at 200 g for 15 min. Afterward, the opaque middle layer with cells was collected, washed with harvest buffer, and centrifuged at 200 g for 5 min to yield a cell pellet. Isolated mononuclear cells were cultured in macrophage induction media, containing growth media, prostaglandin E2 (PGE2; 10^−7 M; Santa Cruz Biotechnology, Dallas, Tex.), and M-CSF (10 ng/ml; PeproTech, Rocky Hill, N.J.) at 100,000 cells/cm^2. For osteoclast differentiation, macrophages cultured for 3 days were further induced in osteoclast induction media containing growth media, PGE2 (10^−7 M), M-CSF (10 ng/ml), and RANKL (10 ng/ml; PeproTech). […]

| SMILES | bone tissue, H&E staining ([1]; 1 mg/kg intraperitoneally every 2 days, 8 weeks) | OVX changes of vertebra BMD, BV/TV, Tb.N, Tb.Sp by microCT ([1]; 8 weeks) | femur bone volume (BV/TV) by microCT ([1]; 8 weeks) | mineral apposition rate and bone formation rate ([1]; 8 weeks, bone labeling) | maximum load and stiffness of tibia ([1]; 8 weeks, compared to the corresponding controls) | TRAP-positive cells on the bone surface ([1]; 8 weeks, compared to the vehicle control) | CD73 and CD39 expression levels, immunofluorescence ([1]; vehicle- vs BAY 60-6583-treated groups) | fold change of alizarin red S deposition, ADO compared to GM ([2]; female) | osteogenic differentiation, alizarin red S deposition ([2]; young and aged cells from either sex, 2D culture, ADO 60 ug/mL) | expression of osterix (OSX) and osteopontin (OPN) [3] | expression of Nfatc1, ACP5 and CTSK [4] |
| --- | --- | --- | --- | --- | --- | --- | --- | --- | --- | --- | --- |
| N#Cc1c(N)nc(SCC(N)=O)c(C#N)c1-c1ccc(OCC2CC2)cc1 [BAY 60-6583] | attenuation of bone loss | attenuated | bone loss was diminished | abrogation of the bone loss | improved | decreased number | no significant differences | – | – | – | – |
| Nc1ncnc2c1ncn2[C@@H]1O[C@H](CO)[C@@H](O)[C@H]1O [adenosine] | – | – | – | – | – | – | – | larger fold change | induced osteogenic differentiation | up-regulation | reduced expression |

— patent publication US20220249533A1, “COMPOSITIONS AND METHODS FOR BONE REPAIR AND BONE HEALTH” (DUKE UNIVERSITY, priority 2019, published 2022)
